Data taken from DBAASP.
In brackets after ≈: the same amount, converted by molar mass. Several values for one entry are separate records, joined by “and”; a condition that tells them apart may be missing. Equal entries are not always repeated.

Legend:
Test in all cases: ≥ marks a high value that may be exact or a test limit, other limits are often not marked, values filed in µg/mL are converted to µM
Escherichia coli = system: Escherichia coli
Listeria innocua = system: Listeria innocua
Micrococcus luteus A270 = system: Micrococcus luteus A270
[1] = system: Salmonella enterica subsp. enterica serovar Enteritidis
[2] = system: Bacillus subtilis ATCC 6633
[3] = system: Escherichia coli ATCC 25922
[4] = system: Klebsiella pneumoniae ATCC 10031
[5] = system: Micrococcus luteus ATCC 10240
[6] = system: Pseudomonas aeruginosa ATCC 27853
[7] = system: Salmonella enterica subsp. enterica serovar Typhimurium ATCC 14028
[8] = system: Shigella dysenteriae ATCC 9752
[9] = system: Staphylococcus aureus ATCC 6538P
[10] = system: Staphylococcus aureus TK784
[11] = system: Staphylococcus epidermidis ATCC 12228
[12] = system: Candida albicans NCPF 1467
[13] = system: Escherichia coli NCTC 10418
[14] = system: Staphylococcus aureus NCTC 10788
[15] = system: Bacillus subtilis ATCC 62037
[16] = system: Candida albicans ATCC 10231
[17] = system: Cryptococcus neoformans ATCC 34881
[18] = system: Escherichia coli ATCC 27325
[19] = system: Pseudomonas putida ATCC 17426
[20] = system: Saccharomyces cerevisiae ATCC 44774
[21] = system: Salmonella enterica subsp. enterica serovar Enteritidis ATCC 13076
[22] = system: Staphylococcus aureus ATCC 15752
[23] = system: Streptococcus mutans ATCC 25175
Micrococcus luteus = system: Micrococcus luteus
Staphylococcus aureus = system: Staphylococcus aureus
Aeromonas hydrophila = system: Aeromonas hydrophila
Vibrio harveyi = system: Vibrio harveyi
Escherichia coli BW25113 = system: Escherichia coli BW25113

Structure (SMILES) | MIC [2] | MIC [3] | MIC [4] | MIC [5] | MIC [6] | MIC [7] | MIC [8] | MIC [9] | MIC [10] | MIC [11] | also measured
CC(C)C[C@H](NC(=O)[C@H](C)NC(=O)[C@H](CC(N)=O)NC(=O)[C@H](C)NC(=O)[C@@H](NC(=O)CNC(=O)[C@H](C)NC(=O)[C@@H](NC(=O)[C@@H](NC(=O)[C@H](CCCCN)NC(=O)[C@H](CCC(N)=O)NC(=O)[C@H](Cc1ccccc1)NC(=O)[C@H](CC(=O)O)NC(=O)[C@H](C)NC(=O)[C@@H](N)CCC(N)=O)C(C)C)C(C)C)C(C)C)C(=O)N[C@@H](C)C(=O)N[C@@H](Cc1cnc[nH]1)C(=O)N[C@@H](CCCN=C(N)N)C(=O)N[C@@H](Cc1ccc(O)cc1)C(=O)N[C@@H](Cc1cnc[nH]1)C(=O)O [QADFQKVVAGVANALAHRYH] |  |  |  |  |  |  |  |  |  |  | MIC (Escherichia coli): 71 µM (≈ 156 µg/mL); MIC (Listeria innocua): ≥ 71 µM; MIC (Micrococcus luteus A270): ≥ 71 µM; MIC [1]: ≥ 35 µM
CC[C@H](C)[C@H](NC(=O)[C@H](CO)NC(=O)[C@H](CC(N)=O)NC(=O)[C@@H](NC(=O)[C@H](Cc1ccccc1)NC(=O)[C@H](C)NC(=O)[C@H](CO)NC(=O)[C@H](C)NC(=O)[C@H](Cc1ccccc1)NC(=O)[C@H](CC(C)C)NC(=O)[C@H](CCCCN)NC(=O)[C@H](C)NC(=O)CNC(=O)[C@H](CC(C)C)NC(=O)[C@H](CCCCN)NC(=O)[C@H](CC(C)C)NC(=O)[C@H](CCCCN)NC(=O)[C@H](CC(C)C)NC(=O)[C@H](CC(C)C)NC(=O)[C@H](Cc1ccccc1)NC(=O)CN)C(C)C)C(=O)N[C@@H](CCCCN)C(N)=O [GFLLKLKLGAKLFASAFVNSIK] |  |  |  |  |  |  |  |  |  |  | MIC [12]: 6.76 µM (≈ 16 µg/mL); MIC [13]: 13.5 µM (≈ 32 µg/mL); MIC [14]: 6.76 µM (≈ 16 µg/mL)
CC(C)C[C@H](NC(=O)[C@H](Cc1c[nH]c2ccccc12)NC(=O)[C@H](CCCCN)NC(=O)[C@H](CC(C)C)NC(=O)[C@H](CC(C)C)NC(=O)[C@H](CCCCN)NC(=O)[C@H](CCCCN)NC(=O)[C@H](CC(C)C)NC(=O)[C@H](CC(C)C)NC(=O)[C@H](CCCCN)NC(=O)[C@@H](N)CCCCN)C(N)=O [KKLLKKLLKWL] | 0.709 µM (≈ 0.999 µg/mL) | 1.42 µM (≈ 2 µg/mL) | 1.42 µM (≈ 2 µg/mL) | 1.42 µM (≈ 2 µg/mL) | 2.84 µM (≈ 4 µg/mL) | 0.709 µM (≈ 0.999 µg/mL) | 0.709 µM (≈ 0.999 µg/mL) | 0.709 µM (≈ 0.999 µg/mL) | 2.84 µM (≈ 4 µg/mL) | 0.709 µM (≈ 0.999 µg/mL) | 
CC[C@H](C)[C@H](NC(=O)CNC(=O)[C@H](CCCCN)NC(=O)[C@H](CCCCN)NC(=O)[C@H](CCC(N)=O)NC(=O)[C@H](CC(C)C)NC(=O)[C@H](CCCN=C(N)N)NC(=O)[C@H](CC(C)C)NC(=O)[C@H](CC(C)C)NC(=O)[C@H](CCCN=C(N)N)NC(=O)[C@H](CCCN=C(N)N)NC(=O)[C@H](CC(C)C)NC(=O)[C@H](CC(C)C)NC(=O)[C@H](CCCN=C(N)N)NC(=O)[C@H](CCSC)NC(=O)[C@H](C)NC(=O)[C@H](CCCCN)NC(=O)[C@@H]1CCCN1C(=O)[C@H](C)N)C(=O)O [APKAMRLLRRLLRLQKKGI] |  |  |  |  |  |  |  |  |  |  | MIC [15]: 0.442 µM (≈ 1 µg/mL); MIC [16]: 0.221 µM (≈ 0.5 µg/mL); MIC [17]: 0.221 µM (≈ 0.5 µg/mL); MIC [18]: 0.442 µM (≈ 1 µg/mL); MIC [19]: 0.442 µM (≈ 1 µg/mL); MIC [20]: 0.221 µM (≈ 0.5 µg/mL); MIC [21]: 0.442 µM (≈ 1 µg/mL); MIC [22]: 0.884 µM (≈ 2 µg/mL); MIC [23]: 0.442 µM (≈ 1 µg/mL)
CC(C)C[C@H](NC(=O)[C@@H](NC(=O)[C@@H](NC(=O)[C@@H](N)CO)[C@@H](C)O)C(C)C)C(=O)N[C@H](C(=O)N[C@@H](CO)C(=O)N[C@@H](CCCCN)C(=O)N[C@@H](Cc1ccc(O)cc1)C(=O)N[C@@H](CCCN=C(N)N)C(=O)O)[C@@H](C)O [STVLTSKYR] |  |  |  |  |  |  |  |  |  |  | MIC (Escherichia coli): 8 µM (≈ 8.43 µg/mL); MIC (Listeria innocua): 2 µM (≈ 2.11 µg/mL); MIC (Micrococcus luteus A270): 15 µM (≈ 15.8 µg/mL); MIC (Micrococcus luteus): 15 µM (≈ 15.8 µg/mL); MIC [1]: 8 µM and 7.5 µM; MIC (Staphylococcus aureus): 2 µM (≈ 2.11 µg/mL)
CC[C@H](C)[C@H](NC(=O)[C@H](C)NC(=O)[C@H](CCCN=C(N)N)NC(=O)[C@H](Cc1cnc[nH]1)NC(=O)[C@@H](NC(=O)[C@H](C)NC(=O)[C@H](CCCN=C(N)N)NC(=O)[C@@H](NC(=O)CNC(=O)[C@H](Cc1cnc[nH]1)NC(=O)[C@H](CO)NC(=O)[C@@H](NC(=O)[C@H](Cc1c[nH]c2ccccc12)NC(=O)CNC(=O)[C@@H](NC(=O)[C@@H](NC(=O)[C@H](C)NC(=O)[C@H](Cc1cnc[nH]1)NC(=O)[C@@H](NC(=O)[C@@H](N)Cc1ccccc1)[C@@H](C)CC)[C@@H](C)CC)[C@@H](C)CC)[C@@H](C)CC)C(C)C)[C@@H](C)CC)C(=O)N[C@@H](Cc1cnc[nH]1)C(N)=O [FIHAIIGWISHGVRAIHRAIH] |  |  |  |  |  |  |  |  |  |  | MIC (Aeromonas hydrophila): 16 µM (≈ 38.5 µg/mL); MIC (Vibrio harveyi): ≥ 32 µM
CC[C@H](C)[C@H](N)C(=O)N[C@H](C(=O)NCC(=O)N[C@@H](C)C(=O)N[C@H](C(=O)N[C@@H](C)C(=O)N[C@@H](C)C(=O)N[C@@H](C)C(=O)N[C@@H](CC(C)C)C(=O)N1CCC[C@H]1C(=O)N[C@@H](Cc1cnc[nH]1)C(=O)N[C@H](C(=O)N[C@H](C(=O)N[C@@H](CC(N)=O)C(=O)N[C@@H](C)C(=O)N[C@H](C(=O)N[C@@H](CCCCN)C(=O)N[C@@H](CC(N)=O)C(=O)N[C@H](C(=O)N[C@@H](Cc1ccccc1)C(=O)O)[C@@H](C)O)[C@@H](C)CC)[C@@H](C)CC)C(C)C)[C@@H](C)CC)[C@@H](C)CC [IIGAIAAALPHVINAIKNTF] |  |  |  |  |  |  |  |  |  |  | MIC [12]: ≥ 120 µM; MIC [14]: 16 µM (≈ 32.8 µg/mL)
CC[C@H](C)[C@H](NC(=O)[C@@H]1CCCN1C(=O)[C@H](Cc1c[nH]c2ccccc12)NC(=O)[C@H](CCCN=C(N)N)NC(=O)[C@H](Cc1c[nH]c2ccccc12)NC(=O)[C@@H](N)CCCN=C(N)N)C(=O)N[C@@H](CCCN=C(N)N)C(=O)N[C@@H](CCCN=C(N)N)C(=O)N1CCC[C@H]1C(=O)N1CCC[C@H]1C(=O)N[C@H](C(=O)N[C@@H](CCCN=C(N)N)C(=O)N1CCC[C@H]1C(=O)N1CCC[C@H]1C(=O)N[C@@H](Cc1c[nH]c2ccccc12)C(=O)N[C@@H](Cc1ccc(O)cc1)C(=O)N1CCC[C@H]1C(=O)O)[C@@H](C)CC [RWRWPIRRPPIRPPWYP] |  |  |  |  |  |  |  |  |  |  | MIC (Escherichia coli BW25113): 8 µM (≈ 18.6 µg/mL)

Further lines, with some results ahead:

MIC [2] | MIC [3] | MIC [4] | MIC [5] | MIC [6] | MIC [7] | MIC [8] | MIC [9] | MIC [10] | MIC [11] | Structure (SMILES) | also measured
0.894 µM (≈ 1.3 µg/mL) | > 55 µM | ≥ 55 µM | 1.72 µM (≈ 2.5 µg/mL) | > 55 µM | > 55 µM | ≥ 55 µM | 1.72 µM (≈ 2.5 µg/mL) | 3.44 µM (≈ 5 µg/mL) | 0.894 µM (≈ 1.3 µg/mL) | CC(C)C[C@H](NC(=O)[C@H](CC(C)C)NC(=O)[C@H](Cc1c[nH]c2ccccc12)NC(=O)[C@H](CCCCN)NC(=O)[C@H](CC(C)C)NC(=O)[C@H](CC(C)C)NC(=O)[C@H](Cc1c[nH]c2ccccc12)NC(=O)[C@H](CCCCN)NC(=O)[C@H](CC(C)C)NC(=O)[C@@H](N)CC(C)C)C(=O)N[C@@H](CCCCN)C(N)=O [LLKWLLKWLLK] | 
1.68 µM (≈ 2.5 µg/mL) | 27 µM (≈ 40 µg/mL) | 27 µM (≈ 40 µg/mL) | 3.37 µM (≈ 5 µg/mL) | 13.5 µM (≈ 20 µg/mL) | 53.9 µM (≈ 79.9 µg/mL) | ≥ 53.9 µM | 1.68 µM (≈ 2.5 µg/mL) | 27 µM (≈ 40 µg/mL) | 1.68 µM (≈ 2.5 µg/mL) | CC(C)C[C@H](NC(=O)[C@H](Cc1c[nH]c2ccccc12)NC(=O)[C@H](CCCCN)NC(=O)[C@H](CCCCN)NC(=O)[C@H](CC(C)C)NC(=O)[C@H](Cc1c[nH]c2ccccc12)NC(=O)[C@H](CCCCN)NC(=O)[C@H](CC(C)C)NC(=O)[C@@H](N)CC(C)C)C(=O)N[C@@H](CCCCN)C(=O)N[C@@H](CCCCN)C(N)=O [LLKWLKKWLKK] | 
